Experimental data reported in article PMC5309217, “Divergent Soybean Calmodulins Respond Similarly to Calcium Transients: Insight into Differential Target Regulation” (Frontiers in Plant Science, 2017).

Columns and labels:
[1] = Steady-state Ca^2+ sensitivity of CaMs in the presence of NADK peptide; assay type: binding; conditions: vs MLCK peptide
Protocol: (§1) The steady-state fluorescence measurements were performed using a Perkin-Elmer LS55 spectrofluorimeter at 20°C. The titration buffer consisted of 200 mM MOPS, 150 mM KCl, 2 mM EGTA (pH 7.0) ([Tikunova et al., 2002], [2010]; [Tikunova and Davis, 2004]). […] The free Ca^2+ concentration was calculated using the EGCA02 program by [Robertson and Potter (1984)]. The free Mg^2+ concentration was calculated using the MaxChelator program ([Bers et al., 2010]). Each reported Kd represents an average of at least three successive titrations ± standard error and fit with the Hill equation as previously described ([George et al., 1996]).
(§2) The Ca^2+ titrations in the presence of Mg^2+ were performed as described above with the addition of 3 mM Mg^2+ to the titration buffer.

[2] = target: T1, CaM binding domain of Arabidopsis thaliana NADK2 (Arabidopsis thaliana, UniProt Q9C5W3); assay: NADK peptide affinity for CaMs (intrinsic Trp of the peptide)
T1 construct: purchased Ohio Peptide LLC (Powell, OH); host or cells: chemical synthesis
Protocol: as §1, §2

Substance	effect at sensitizing the CaMs to Ca^2+ compared to MLCK [1]	binding of NADK peptide to CaMs in the absence of Ca^2+ ([2]; absence of Ca^2+, data not shown)	affinity of NADK peptide for Ca^2+-saturated CaMs compared to MLCK ([2]; vs MLCK peptide)	Kd ([2]; read-out: NADK peptide affinity (Kd) for Ca^2+-saturated CaM, WT CaM titrated into 1 μM NADK peptide, 100 μM Ca^2+ (pCa = 4), 200 mM MOPS, 150 mM KCl, 2 mM EGTA, pH 7.0, 20°C, mean ± SE of at least three titrations)
IYVHSKEGVWRTSAMVSRWK [NADK peptide]	substantially weaker effect	did not bind	weaker affinity	–
sCaM4: soybean CaM isoform 4; stress-induced CaM found in the soybean	–	–	–	760 ± 70 nM
